Entries after “also recorded” stand apart in the source; their conditions may differ.
Key:
Type in all cases: in vivo
TNF-alpha = experiment: Human study, serum ELISA, TNF-alpha
Method: (§1) A human study was run with a total of 80 healthy male and female subjects ranging from 21 to 65 years of age, who were active (i.e. 30 minutes per day of moderate activity, 3 days per week) are randomized into two groups. […] Seventy-three subjects completed the trial and biomarker data were analyzed from the sera of the 73 completers. Sera were collected for analysis of C-Reactive Protein (CRP), ACE 1, ACE 2, TMPRSS 2, the Tumor Necrosis Factor alpha (TNF-alpha), and Furin at baseline in the beginning of the trial, at week 5 and 48 hr after an exercise challenge as described (Clinicaltrials.gov NCT04420377). The exercise challenge serves as surrogate to the inflammation stimulus.
(§2) To obtain human sera, venous blood was extracted by venipuncture of the antecubital vein using a 21-gauge syringe and collected into a 10 mL EDTA vacutainer tube (BD Vacutainer®, Becton, Dickinson and Company, Franklin Lakes, NJ) by a certified phlebotomist. […] Human ACE-1, ACE-2, TMPRSS2, Furin, CRP and TNF-alpha protein levels were assessed using commercially available ELISA kits, according the manufacturer recommendations, ACE-1 (R&D systems Inc., Minneapolis, MN, USA), ACE-2 (RayBiotech inc., Peachtree Corners, GA), TMPRSS2 (Novus Biologicals, Littleton, CO), CRP (R&D Systems Inc., Minneapolis, MN), TNF-alpha (Novus Biologicals, Littleton, CO), and Furin (Sigma Aldrich, St. Louis, MO). […]

ACE-1 = experiment: Human study, serum ELISA, ACE-1; conditions: 2 g daily L-carnitine tartrate, 5 weeks, before or after exercise challenge
Method: as §1, §2

Furin = experiment: Human study, serum ELISA, Furin; conditions: 2 g daily, 5 weeks, 48 hours after exercise challenge, versus placebo
Method: as §1, §2

Compound: C[N+](C)(C)C[C@H](O)CC(=O)[O-] [L-carnitine]
- TNF-alpha levels (TNF-alpha; human serum, any time point, b137): No change occurred
- TNF-α (TNF-alpha; human, group A, Wk5 compared to BL, p<0.01): lower
- ACE-1 serum levels (ACE-1): no significant effect; also recorded: no significant interaction or main effect
- Furin serum levels (Furin): significant decrease

Reference: US20230346735A1, “Nutritional Composition Comprising Carnitine and Method for Treating or Preventing an Infection in a Mammal” (priority 2020, published 2023)
